Where two headings read alike, the source gives them in different places.
Tested on: ring stage parasites (Pf)
Experiment: Parasite lactate dehydrogenase (LDH) growth assay (Parasite Assay, PfLDH Assay)
Format: cell-based, P. falciparum
Conditions: Table 3, 72 hours growth, LDH readout, read-out: EC50
Description: The parasite stock was maintained at 4% haematocrit in RPMI-Hepes media buffered with sodium bicarbonate and supplemented with 5% heat inactivated human serum and 0.5% albumax. […] On the day of assay set up, a blood smear of the parasite culture was Giemsa stained and counted. The parasitemia was adjusted to 0.7% rings and the haematocrit was diluted to 2% in RPMI-Hepes media buffered with sodium bicarbonate and supplemented with 5% heat inactivated human serum and 0.5% albumax. 30 μl of diluted parasites are then added into 10 μl of media+compound in pre-prepared Greiner TC assay plates. Parasite assay plates were placed in gassed humidified boxes in single layer and allowed to incubate at 37° C. for 72 hours. After 72 hours growth, assay plates were sealed with parafilm and frozen flat, in single file at −80° C. overnight. On the following day, assay plates were allowed to thaw at room temperature for 4 hours to which an LDH assay was performed to measure parasite growth.

Structure (SMILES)	EC50 (Plasmodium falciparum, 72 h) [nM]	EC50 [nM]
CCC1(CC)CC(=O)N(C[C@@H]2[C@@H](C(=O)N[C@H]3c4ccccc4OC(C)(C)[C@H]3O)C2(F)F)C(=N)N1 [Example 18A]	39	–
CCC1(CC)CC(=O)N([C@H](CCOC)[C@H]2C[C@@H]2C(=O)N[C@@H]2c3ccccc3OCC2(C)C)C(=N)N1 [Example 19A]	28	–
CCC1(CC)CC(=O)N([C@H](CCOC)[C@H]2C[C@@H]2C(=O)N[C@H]2c3ccccc3OCC2(C)C)C(=N)N1 [Example 19B]	4.2	–
COCC[C@H]([C@H]1C[C@@H]1C(=O)N[C@H]1CC(C)(C)Oc2ccccc21)N1C(=N)N[C@](C)(C(C)C)CC1=O [Example 20]	5.3	–
COCC[C@H]([C@H]1C[C@@H]1C(=O)N[C@H]1C[C@@H](C(F)(F)F)Oc2ccccc21)N1C(=N)N[C@](C)(C(C)C)CC1=O [Example 21A]	260	–
COCC[C@H]([C@H]1C[C@@H]1C(=O)N[C@@H]1C[C@@H](C(F)(F)F)Oc2ccccc21)N1C(=N)N[C@](C)(C(C)C)CC1=O [Example 21B]	1	–
COCC[C@H]([C@H]1C[C@@H]1C(=O)N[C@H]1CCOc2ccccc21)N1C(=N)N[C@](C)(C(C)C)CC1=O [Example 22]	44	–
COCC[C@H]([C@H]1C[C@@H]1C(=O)NC1CC(C)(C)Oc2ccccc21)N1C(=N)NC(C)(C)CC1=O (stereo partly shown) [Example 23A]	16	–
COCC[C@H]([C@H]1C[C@@H]1C(=O)NC1CC(C)(C)Oc2ccccc21)N1C(=N)NC(C)(C)CC1=O (stereo partly shown) [Example 23B]	–	15
COCC[C@H]([C@H]1C[C@@H]1C(=O)N[C@H]1C[C@@H](C(F)(F)F)Oc2ccccc21)N1C(=N)NC(C)(C)CC1=O [Example 24A]	3.4	–
COCC[C@H]([C@H]1C[C@@H]1C(=O)N[C@@H]1C[C@@H](C(F)(F)F)Oc2ccccc21)N1C(=N)NC(C)(C)CC1=O [Example 24B]	2	–
COCC[C@@H]([C@H]1C[C@@H]1C(=O)N[C@H]1C[C@@H](C(F)(F)F)Oc2ccccc21)N1C(=N)NC(C)(C)CC1=O [Example 24C]	120	–
CC1(C)CC(=O)N([C@H](c2cccnc2)[C@H]2C[C@@H]2C(=O)N[C@H]2CC(C)(C)Oc3ccccc32)C(=N)N1 [Example 26]	4.7	–
CC1(C)CC(=O)N([C@H](c2cccnc2)[C@H]2C[C@@H]2C(=O)N[C@@H]2c3ccccc3OC(C)(C)[C@H]2O)C(=N)N1 [Example 27]	78	–
CCC1(CC)CC(=O)N(C[C@H]2C(C)[C@@H]2C(=O)N[C@H]2C[C@@H](C(F)(F)F)Oc3ccccc32)C(=N)N1 (stereo partly shown) [Example 28A]	12	–
CCC1(CC)CC(=O)N(C[C@H]2C(C)[C@@H]2C(=O)N[C@H]2C[C@@H](C(F)(F)F)Oc3ccccc32)C(=N)N1 (stereo partly shown) [Example 28B]	–	14
CCC1(CC)CC(=O)N(CC2C(C(=O)N[C@H]3C[C@@H](C(F)(F)F)Oc4ccccc43)C2(C)C)C(=N)N1 (stereo partly shown) [Example 31A]	215	–
CCC1(CC)CC(=O)N(CC2C(C(=O)N[C@H]3C[C@H](C(F)(F)F)Oc4ccccc43)C2(C)C)C(=N)N1 (stereo partly shown) [Example 31B]	213	–
CC1(C)CC(=O)N([C@H](c2cccnc2)[C@H]2C[C@@H]2C(=O)N[C@H]2C[C@H](C(F)(F)F)Oc3ccccc32)C(=N)N1 [Example 32]	1.8	–
CCC1(CC)CC(=O)N(C[C@H]2C(C)[C@@H]2C(=O)N[C@@H]2c3ccccc3C[C@H]2O)C(=N)N1 (stereo partly shown) [Example 33]	76	–
CCC1(CC)CC(=O)N(C[C@@H]2[C@@H](C(=O)N[C@H]3CC(C)(C)Oc4ccccc43)C2(C)C)C(=N)N1 [Example 34]	286	–
COc1ccc([C@H]([C@H]2C[C@@H]2C(=O)N[C@H]2C[C@H](C(F)(F)F)Oc3ccccc32)N2C(=N)NC(C)(C)CC2=O)cn1 [Example 37]	1.2	–
COc1ccc([C@H]([C@H]2C[C@@H]2C(=O)N[C@@H]2c3ccccc3OC(C)(C)[C@H]2O)N2C(=N)NC(C)(C)CC2=O)cn1 [Example 39]	10.1	–
COc1cncc([C@H]([C@H]2C[C@@H]2C(=O)N[C@H]2CC(C)(C)Oc3ccccc32)N2C(=N)NC(C)(C)CC2=O)c1 [Example 40]	3.1	–
COc1cncc([C@H]([C@H]2C[C@@H]2C(=O)N[C@H]2C[C@H](C(F)(F)F)Oc3ccccc32)N2C(=N)NC(C)(C)CC2=O)c1 [Example 41]	1.1	–
COc1cncc([C@H]([C@H]2C[C@@H]2C(=O)N[C@@H]2c3ccccc3OC(C)(C)[C@H]2O)N2C(=N)NC(C)(C)CC2=O)c1 [Example 42]	18.4	–

Structure (SMILES)	EC50 (Plasmodium falciparum, 72 h) [nM]	EC50 [nM]
CC1(C)CC(=O)N([C@H](c2cccnc2)[C@@H]2[C@@H](C(=O)N[C@H]3C[C@H](C(F)(F)F)Oc4ccccc43)C2(C)C)C(=N)N1 [Example 43A]	4	–
CC1(C)CC(=O)N([C@@H](c2cccnc2)[C@@H]2[C@@H](C(=O)N[C@H]3C[C@H](C(F)(F)F)Oc4ccccc43)C2(C)C)C(=N)N1 [Example 43B]	37	–
CCC1(CC)CC(=O)N([C@@H](c2cccnc2)[C@@H]2[C@@H](C(=O)N[C@H]3C[C@H](C(F)(F)F)Oc4ccccc43)C2(C)C)C(=N)N1 [Example 44A]	8.3	–
CCC1(CC)CC(=O)N([C@H](c2cccnc2)[C@@H]2[C@@H](C(=O)N[C@H]3C[C@H](C(F)(F)F)Oc4ccccc43)C2(C)C)C(=N)N1 [Example 44B]	0.9	–
CC1(C)CC(=O)N([C@H](c2ccc(C#N)cc2)[C@H]2C[C@@H]2C(=O)N[C@H]2CC(C)(C)Oc3ccccc32)C(=N)N1 [Example 45A]	2.8	–
CC1(C)CC(=O)N([C@@H](c2ccc(C#N)cc2)[C@H]2C[C@@H]2C(=O)N[C@H]2CC(C)(C)Oc3ccccc32)C(=N)N1 [Example 45B]	220	–
CC1(C)CC(=O)N([C@H](c2ccc(C#N)cc2)[C@H]2C[C@@H]2C(=O)N[C@@H]2c3ccccc3OC(C)(C)[C@H]2O)C(=N)N1 [Example 46]	2.5	–
CC1(C)CC(=O)N([C@@H](c2ccc(C#N)cc2)[C@H]2C[C@@H]2C(=O)N[C@H]2C[C@H](C(F)(F)F)Oc3ccccc32)C(=N)N1 [Example 47A]	155	–
CC1(C)CC(=O)N([C@H](c2ccc(C#N)cc2)[C@H]2C[C@@H]2C(=O)N[C@H]2C[C@H](C(F)(F)F)Oc3ccccc32)C(=N)N1 [Example 47B]	0.9	–
CCC1(CC)CC(=O)N([C@H](c2cccnc2)[C@@H]2[C@@H](C(=O)N[C@H]3CC(C)(C)Oc4ccccc43)C2(C)C)C(=N)N1 [Example 48A]	2.7	–
CCC1(CC)CC(=O)N([C@@H](c2cccnc2)[C@@H]2[C@@H](C(=O)N[C@H]3CC(C)(C)Oc4ccccc43)C2(C)C)C(=N)N1 [Example 48B]	7.4	–
CC1(C)CC(=O)N(C(c2cccnc2)[C@@H]2[C@@H](C(=O)N[C@H]3CC(C)(C)Oc4ccccc43)C2(C)C)C(=N)N1 (stereo partly shown) [Example 49A]	20	–
CC1(C)CC(=O)N(C(c2cccnc2)[C@@H]2[C@@H](C(=O)N[C@H]3CC(C)(C)Oc4ccccc43)C2(C)C)C(=N)N1 (stereo partly shown) [Example 49B]	–	14
CC1(C)CC(=O)N([C@H](c2cccc(C#N)c2)[C@H]2C[C@@H]2C(=O)N[C@H]2CC(C)(C)Oc3ccccc32)C(=N)N1 [Example 50]	3	–
CC1(C)CC(=O)N([C@H](c2cccc(C#N)c2)[C@H]2C[C@@H]2C(=O)N[C@@H]2c3ccccc3OC(C)(C)[C@H]2O)C(=N)N1 [Example 51]	5.3	–
CC1(C)CC(=O)N([C@H](c2cccc(C#N)c2)[C@H]2C[C@@H]2C(=O)N[C@H]2C[C@H](C(F)(F)F)Oc3ccccc32)C(=N)N1 [Example 52]	1	–
CC1(C)CC(=O)N(C(c2cccc(C#N)c2)[C@H]2C[C@@H]2C(=O)NC2CC(C)(C)Oc3ccc(F)cc32)C(=N)N1 (stereo partly shown) [Example 53A]	3.1	–
CC1(C)CC(=O)N(C(c2cccc(C#N)c2)[C@H]2C[C@@H]2C(=O)NC2CC(C)(C)Oc3ccc(F)cc32)C(=N)N1 (stereo partly shown) [Example 53B]	–	2.1
CCC1(CC)CC(=O)N([C@@H](c2cccnc2)[C@H]2C(C)[C@@H]2C(=O)N[C@H]2CC(C)(C)Oc3ccccc32)C(=N)N1 (stereo partly shown) [Example 56A]	65	–
CCC1(CC)CC(=O)N([C@H](c2cccnc2)[C@H]2C(C)[C@@H]2C(=O)N[C@H]2CC(C)(C)Oc3ccccc32)C(=N)N1 (stereo partly shown) [Example 56B]	0.7	–
CC1[C@H]([C@@H](c2cccnc2)N2C(=N)NC(C)(C)CC2=O)[C@H]1C(=O)N[C@H]1CC(C)(C)Oc2ccccc21 (stereo partly shown) [Example 57A]	3.2	–
CC1[C@H](C(c2cccnc2)N2C(=N)NC(C)(C)CC2=O)[C@H]1C(=O)N[C@H]1CC(C)(C)Oc2ccccc21 (stereo partly shown) [Example 57B]	100	–
CC1(C)CC(=O)N([C@@H](c2cncc(Cl)c2)[C@H]2C[C@@H]2C(=O)N[C@H]2CC(C)(C)Oc3ccccc32)C(=N)N1 [Example 58A]	210	–
CC1(C)CC(=O)N([C@H](c2cncc(Cl)c2)[C@H]2C[C@@H]2C(=O)N[C@H]2CC(C)(C)Oc3ccccc32)C(=N)N1 [Example 58B]	1	–
CC1(C)CC(=O)N([C@H](c2cncc(Cl)c2)[C@H]2C[C@@H]2C(=O)N[C@@H]2c3ccccc3OC(C)(C)[C@H]2O)C(=N)N1 [Example 59]	3.8	–
CC1(C)CC(=O)N([C@H](c2cncc(Cl)c2)[C@H]2C[C@@H]2C(=O)N[C@H]2C[C@H](C(F)(F)F)Oc3ccccc32)C(=N)N1 [Example 60A]	0.5	–

Reference: patent US20240131028A1, “CHEMOVACCINATION AGAINST PLASMODIUM INFECTION WITH SELECTIVE PLASMEPSIN X INHIBITORS” (Merck Sharp & Dohme LLC, priority 2021, published 2024)
